Measurements from PMC4324364 (MedChemComm, 2014).
Read-outs that look alike come from different tables or passages of the source.

Key:
L. major amastigotes = conditions: read-out: L. major Amast EC50, previously reported data; cited from earlier work
HepG2 cell line [1] = conditions: compound marked as previously reported data; cited from earlier work
Metabolic stability = conditions: in vitro ADME assays
HepG2 cell line [2] = assay: HepG2 host cell toxicity; type: cell-based, human
T. brucei [3] = assay: T. brucei cell growth inhibition; type: cell-based, Trypanosoma brucei
T. brucei [4] = conditions: cited from earlier work
T. brucei [5] = conditions: read-out: T. brucei EC50; previously reported data, same assay; cited from earlier work
T. cruzi = conditions: read-out: T. cruzi EC50; previously reported data, same assay; cited from earlier work
L. major promastigotes = conditions: read-out: L. major Promast EC50, previously reported data; cited from earlier work
[6] = system: P. falciparum (D6 strain); conditions: read-out: P. falciparum D6 EC50, previously reported data; cited from earlier work
[7] = cited from earlier work
[8] = cited from earlier work; remark: listed apart in the source

Q: For `Fc1cccc(COc2ccc(Nc3ncnc4ccc(-c5ccccc5)cc34)cc2Cl)c1` [4b], which EC50 (L. major amastigotes) is on record?
A: The EC50 was greater than 15000 nM.

Q: What about the “HepG2 TC50 (concentration leading to 50% growth inhibition of host cells)” value (HepG2 cell line [1]) of the same compound?
A: Its value is 4900 nM.

Q: For `Fc1cccc(COc2ccc(Nc3ncnc4ccc(-c5ccc(CN6CCOCC6)cc5)cc34)cc2Cl)c1` [4j], which “HepG2 TC50 (concentration leading to 50% growth inhibition of host cells)” value (HepG2 cell line [1]) is on record?
A: Its value is 12900 nM.

Q: Which results are given for `Fc1cccc(COc2ccc(Nc3ncnc4ccc(-c5ccc(N6CCOCC6)cc5)cc34)cc2Cl)c1` [4k]?
A: EC50 (L. major amastigotes): > 15000 nM; HepG2 TC50 (concentration leading to 50% growth inhibition of host cells) (HepG2 cell line [1]): 9600 nM

Q: Which metabolic stability (Metabolic stability) does the source give for `Cc1cc(-c2cc3ncnc(Nc4ccc(OCc5cccc(F)c5)c(Cl)c4)c3s2)cnc1N1CCOCC1` [11e] here?
A: The metabolic stability was “modest”.

Q: For `Fc1cccc(COc2ccc(Nc3ncnc4sc(-c5ccccc5)cc34)cc2Cl)c1` [18b], which “HepG2 TC50 (concentration leading to 50% growth inhibition of host cells)” value (HepG2 cell line [2]) is on record?
A: The value was 10000 nM.

Q: Which “potency against T. brucei (in words)” value (T. brucei [3]) does the source give for `Fc1cccc(COc2ccc(Nc3ncnc4cc(C#C[C@@H]5CCCN5)sc34)cc2Cl)c1` [GW837016X] here?
A: The value was “potent”.

Q: With `CS(=O)(=O)CCNCc1ccc(-c2ccc3ncnc(Nc4ccc(OCc5cccc(F)c5)c(Cl)c4)c3c2)o1` [compound 1, lapatinib, reference compound] as the compound, how does the “cure of infected mice” value (T. brucei [4]; murine model of HAT) read?
A: The value was 25%.

Q: With `Fc1cccc(COc2ccc(Nc3ncnc4ccc(-c5cccc(N6CCOCC6)c5)cc34)cc2Cl)c1` [compound 2] as the compound, how does the metabolic stability (Metabolic stability) read?
A: Its metabolic stability is “modest”.

Q: And the EC50 (T. brucei [5])?
A: The EC50 was 42 ± 10 nM.

Q: What about the EC50 (T. cruzi) of the same compound?
A: The EC50 was 1800 ± 900 nM.

Q: What about the EC50 (L. major promastigotes) of the same compound?
A: The EC50 was 2970 nM.

Q: And the EC50 [6]?
A: The EC50 was 230 nM.

Q: And the “effect on parasitemia and life extension” value (T. brucei [4]; murine T. brucei bloodstream infection)?
A: The value was “modest effect”.

Q: What about the “central nervous system exposure” value [7] of the same compound?
A: Its value is “lack of central nervous system exposure”.

Q: What about the oral bioavailability ([7]; mice) of the same compound?
A: The oral bioavailability was “orally bioavailable”.

Q: What about the plasma protein binding [8] of the same compound?
A: Its plasma protein binding is greater than 99%.
